Patent US20130053410A1, “SUBSTITUTED HETEROARYL 2',3',7',7A'-TETRAHYDROSPIRO[PYRROLE-3,6'-PYRROLO[1,2-C]IMIDAZOLE]-1',2(1H,5'H)-DIONE” (priority 2011, published 2013)

Molecular target: interaction between p53 and MDM2 proteins (recombinant GST-tagged MDM2, biotinylated p53 peptide) (Homo sapiens, UniProt Q00987)
Test: HTRF assay of inhibition of the p53-MDM2 interaction
Assay type: binding
Settings: bsa: 0.02%
Procedure: The ability of the compounds to inhibit the interaction between p53 and MDM2 proteins was measured by an HTRF (homogeneous time-resolved fluorescence) assay in which recombinant GST-tagged MDM2 binds to a peptide that resembles the MDM2-interacting region of p53. Binding of GST-MDM2 protein and p53-peptide (biotinylated on its N-terminal end) is registered by the FRET (fluorescence resonance energy transfer) between Europium (Eu)-labeled anti-GST antibody and streptavidin-conjugated Allophycocyanin (APC).
[…] Add 10 uL diluted compounds (1:5 dilution in reaction buffer) to each well, mix by shaking. Add 20 uL biotinylated p53 peptide (180 nM working solution) in reaction buffer to each well and mix on shaker. Incubate at 37° C. for 1 h. Add 20 uL streptavidin-APC and Eu-anti-GST antibody mixture (6 nM Eu-anti-GST and 60 nM streptavidin-APC working solution) in TBS buffer with 0.2% BSA, shake at room temperature for 30 minutes and read using a TRF-capable plate reader at 665 and 615 nm (Victor 5, Perkin ElmerWallac). If not specified, the reagents were purchased from Sigma Chemical Co.

Chain of interaction between p53 and MDM2 proteins (recombinant GST-tagged MDM2, biotinylated p53 peptide) (Q00987 whole entry): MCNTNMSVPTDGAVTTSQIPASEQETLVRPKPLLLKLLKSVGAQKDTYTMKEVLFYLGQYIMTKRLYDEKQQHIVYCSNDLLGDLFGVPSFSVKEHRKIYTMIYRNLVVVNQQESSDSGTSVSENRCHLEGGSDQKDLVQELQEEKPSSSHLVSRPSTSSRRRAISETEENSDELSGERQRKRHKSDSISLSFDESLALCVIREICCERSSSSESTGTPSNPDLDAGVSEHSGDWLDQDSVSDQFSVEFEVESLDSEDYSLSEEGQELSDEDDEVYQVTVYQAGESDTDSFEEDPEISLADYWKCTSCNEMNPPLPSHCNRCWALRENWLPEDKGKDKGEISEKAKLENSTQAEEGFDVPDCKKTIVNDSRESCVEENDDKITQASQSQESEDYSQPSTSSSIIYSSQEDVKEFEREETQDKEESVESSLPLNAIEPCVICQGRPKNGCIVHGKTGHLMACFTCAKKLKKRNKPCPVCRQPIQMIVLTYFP

| Structure (SMILES) | IC50 |
| --- | --- |
| COc1cc(C(=O)O)ccc1N1CN2[C@@H](CC(C)(C)C)[C@@]3(C(=O)Nc4cc(C)ncc43)[C@@H](c3cccc(Cl)c3F)[C@@H]2C1=O (racemic) [Example 2, rac-4-((3′R,5S,7S,7aR)-7-(3-chloro-2-fluorophenyl)-6′-methyl-5-neopentyl-1,2′-dioxo-1′,2′,7,7a-tetrahydrospiro[pyrrolo[1,2-c]imidazole-6,3′-pyrrolo[3,2-c]pyridine]-2(1H,3H,5H)-yl)-3-methoxybenzoic acid] | 102 nM |
| COc1cc(C(N)=O)ccc1N1CN2[C@@H](CC(C)(C)C)[C@@]3(C(=O)Nc4cc(C)ncc43)[C@@H](c3cccc(Cl)c3F)[C@@H]2C1=O (racemic) [Example 3a, rac-4-((3′R,5S,7S,7aR)-7-(3-chloro-2-fluorophenyl)-6′-methyl-5-neopentyl-1,2′-dioxo-1′,2′,7,7a-tetrahydrospiro[pyrrolo[1,2-c]imidazole-6,3′-pyrrolo[3,2-c]pyridine]-2(1H,3H,5H)-yl)-3-methoxybenzamide] | 89.9 nM |
| COc1cc2c(cn1)[C@@]1(C(=O)N2)[C@H](CC(C)(C)C)N2CN(c3ccc(C(N)=O)cc3OC)C(=O)[C@H]2[C@@H]1c1cccc(Cl)c1F (racemic) [Example 7, rac-4-((3′R,5S,7S,7aR)-7-(3-chloro-2-fluorophenyl)-6′-methoxy-5-neopentyl-1,2′-dioxo-1′,2′,7,7a-tetrahydrospiro[pyrrolo[1,2-c]imidazole-6,3′-pyrrolo[3,2-c]pyridine]-2(1H,3H,5H)-yl)-3-methoxybenzamide] | 15 nM |
| COc1cc(C(=O)O)ccc1N1CN2[C@@H](CC(C)(C)C)[C@@]3(C(=O)Nc4ccncc43)[C@@H](c3cccc(Cl)c3F)[C@@H]2C1=O (racemic) [Example 5, rac-4-((3′R,5S,7S,7aR)-7-(3-chloro-2-fluorophenyl)-5-neopentyl-1,2′-dioxo-1′,2′,7,7a-tetrahydrospiro[pyrrolo[1,2-c]imidazole-6,3′-pyrrolo[3,2-c]pyridine]-2(1H,3H,5H)-yl)-3-methoxybenzoic acid] | 797 nM |
| COc1cc(C(=O)O)ccc1N1CN2[C@@H](CC(C)(C)C)[C@@]3(C(=O)Nc4cc(C)cnc43)[C@@H](c3cccc(Cl)c3F)[C@@H]2C1=O (racemic) [Example 16, rac-4-((3′S,5S,7S,7aR)-7-(3-chloro-2-fluorophenyl)-6′-methyl-5-neopentyl-1,2′-dioxo-1′,2′,7,7a-tetrahydrospiro[pyrrolo[1,2-c]imidazole-6,3′-pyrrolo[3,2-b]pyridine]-2(1H,3H,5H)-yl)-3-methoxybenzoic acid] | 21.8 nM |
| COc1cc(C(N)=O)ccc1N1C(=O)[C@H]2[C@H](c3cccc(Cl)c3F)[C@]3(C(=O)Nc4cc(Cl)ncc43)[C@H](CC(C)(C)C)N2[C@@H]1CO [Example 13, 4-((3S,3′R,5S,7S,7aR)-6′-chloro-7-(3-chloro-2-fluorophenyl)-3-(hydroxymethyl)-5-neopentyl-1,2′-dioxo-1′,2′,7,7a-tetrahydrospiro[pyrrolo[1,2-c]imidazole-6,3′-pyrrolo[3,2-c]pyridine]-2(1H,3H,5H)-yl)-3-methoxybenzamide] | 9.6 nM |
| COc1cc(C(N)=O)ccc1N1CN2[C@@H](CC(C)(C)C)[C@@]3(C(=O)Nc4cc(Cl)ncc43)[C@@H](c3cccc(Cl)c3F)[C@@H]2C1=O [Example 1, 4-((3′R,5S,7S,7aR)-6′-chloro-7-(3-chloro-2-fluorophenyl)-5-neopentyl-1,2′-dioxo-1′,2′,7,7a-tetrahydrospiro[pyrrolo[1,2-c]imidazole-6,3′-pyrrolo[3,2-c]pyridine]-2(1H,3H,5H)-yl)-3-methoxybenzamide] | 6.8 nM |
| COc1cc(C(N)=O)ccc1N1CN2[C@@H](CC(C)(C)C)[C@@]3(C(=O)Nc4nc(Cl)ccc43)[C@@H](c3cccc(Cl)c3F)[C@@H]2C1=O (racemic) [Example 10, rac-4-((3′R,5S,7S,7aR)-6′-chloro-7-(3-chloro-2-fluorophenyl)-5-neopentyl-1,2′-dioxo-1′,2′,7,7a-tetrahydrospiro[pyrrolo[1,2-c]imidazole-6,3′-pyrrolo[2,3-b]pyridine]-2(1H,3H,5H)-yl)-3-methoxybenzamide] | 19.3 nM |
| COc1cc(C(N)=O)ccc1N1CN2[C@@H](CC(C)(C)C)[C@]3(C(=O)Nc4cc(C)ncc43)[C@@H](c3cccc(Cl)c3F)[C@@H]2C1=O (racemic) [Example 3b, rac-4-((3′S,5S,7S,7aR)-7-(3-chloro-2-fluorophenyl)-6′-methyl-5-neopentyl-1,2′-dioxo-1′,2′,7,7a-tetrahydrospiro[pyrrolo[1,2-c]imidazole-6,3′-pyrrolo[3,2-c]pyridine]-2(1H,3H,5H)-yl)-3-methoxybenzamide] | 1160 nM |
| COc1cc(C(=O)O)ccc1N1CN2[C@@H](CC(C)(C)C)[C@@]3(C(=O)Nc4ncccc43)[C@@H](c3cccc(Cl)c3F)[C@@H]2C1=O (racemic) [Example 15, rac-4-((3′R,5S,7S,7aR)-7-(3-chloro-2-fluorophenyl)-5-neopentyl-1,2′-dioxo-1′,2′,7,7a-tetrahydrospiro[pyrrolo[1,2-c]imidazole-6,3′-pyrrolo[2,3-b]pyridine]-2(1H,3H,5H)-yl)-3-methoxybenzoic acid] | 96 nM |
| COc1cc2c(cn1)[C@@]1(C(=O)N2)[C@H](CC(C)(C)C)N2CN(c3ccc(C(=O)O)cc3OC)C(=O)[C@H]2[C@@H]1c1cccc(Cl)c1F (racemic) [Example 6, rac-4-((3′R,5S,7S,7aR)-7-(3-chloro-2-fluorophenyl)-6′-methoxy-5-neopentyl-1,2′-dioxo-1′,2′,7,7a-tetrahydrospiro[pyrrolo[1,2-c]imidazole-6,3′-pyrrolo[3,2-c]pyridine]-2(1H,3H,5H)-yl)-3-methoxybenzoic acid] | 23 nM |
| COc1cc(C(N)=O)ccc1N1C(=O)[C@H]2[C@H](c3cccc(Cl)c3F)[C@]3(C(=O)Nc4cc(Cl)ncc43)[C@H](CC(C)(C)C)N2[C@@H]1C [Example 11, 4-((3S,3′R,5S,7S,7aR)-6′-chloro-7-(3-chloro-2-fluorophenyl)-3-methyl-5-neopentyl-1,2′-dioxo-1′,2′,7,7a-tetrahydrospiro[pyrrolo[1,2-c]imidazole-6,3′-pyrrolo[3,2-c]pyridine]-2(1H,3H,5H)-yl)-3-methoxybenzamide] | 7.5 nM |
| COc1cc(C(N)=O)ccc1N1C(=O)[C@H]2[C@H](c3cccc(Cl)c3F)[C@]3(C(=O)Nc4cc(Cl)ncc43)[C@H](CC(C)(C)C)N2[C@@H]1CCC1CCOCC1 [Example 14, 4-((3S,3′R,5S,7S,7aR)-6′-chloro-7-(3-chloro-2-fluorophenyl)-5-neopentyl-1,2′-dioxo-3-(2-(tetrahydro-2H-pyran-4-yl)ethyl)-1′,2′,7,7a-tetrahydrospiro[pyrrolo[1,2-c]imidazole-6,3′-pyrrolo[3,2-c]pyridine]-2(1H,3H,5H)-yl)-3-methoxybenzamide] | 7.5 nM |
| COc1cc(C(=O)O)ccc1N1CN2[C@@H](CC(C)(C)C)[C@@]3(C(=O)Nc4nc(Cl)ccc43)[C@@H](c3cccc(Cl)c3F)[C@@H]2C1=O (racemic) [Example 9, rac-4-((3′R,5S,7S,7aR)-6′-chloro-7-(3-chloro-2-fluorophenyl)-5-neopentyl-1,2′-dioxo-1′,2′,7,7a-tetrahydrospiro[pyrrolo[1,2-c]imidazole-6,3′-pyrrolo[2,3-b]pyridine]-2(1H,3H,5H)-yl)-3-methoxybenzoic acid] | 15 nM |
| CC[C@@H]1N(c2ccc(C(N)=O)cc2OC)C(=O)[C@H]2[C@H](c3cccc(Cl)c3F)[C@]3(C(=O)Nc4cc(Cl)ncc43)[C@H](CC(C)(C)C)N12 [Example 12, 4-((3S,3′R,5S,7S,7aR)-6′-chloro-7-(3-chloro-2-fluorophenyl)-3-ethyl-5-neopentyl-1,2′-dioxo-1′,2′,7,7a-tetrahydrospiro[pyrrolo[1,2-c]imidazole-6,3′-pyrrolo[3,2-c]pyridine]-2(1H,3H,5H)-yl)-3-methoxybenzamide] | 7 nM |
